Assay results as given in patent US20080004270A1, “3,4-Disubstituted Pyrazoles as Cyclin Dependent Kinases (Cdk) or Aurora Kinase or Glycogen Synthase 3 (Gsk-3) Inhibitors” (ASTEX THERAPEUTICS LIMITED, priority 2004, published 2008).

Columns and labels:
[1] = biological target: Activated CDK2/CyclinA (Homo sapiens, UniProt P24941); assay: Activated CDK2/CyclinA kinase inhibitory activity assay; assay type: biochemical; details: histone H1 substrate, γ33P-ATP filter assay; read-out: IC50 against CDK2 activity
Description: Compounds of the invention were tested for kinase inhibitory activity using the following protocol.
(§1) Activated CDK2/CyclinA (Brown et al, Nat. Cell Biol., 1, pp 438-443, 1999; Lowe, E. D., et al Biochemistry, 41, pp 15625-15634, 2002) is diluted to 125 pM in 2.5× strength assay buffer (50 mM MOPS pH 7.2, 62.5 mM β-glycerophosphate, 12.5 mM EDTA, 37.5 mM MgCl2, […], 2.5 mM DTT, 2.5 mM sodium orthovanadate, 0.25 mg/ml bovine serum albumin), and 10 μl mixed with 10 μl of histone substrate mix (60 μl bovine histone H1 (Upstate Biotechnology, 5 mg/ml), 940 μl H2O, 35 μCi γ^33P-ATP) and added to 96 well plates along with 5 μl of various dilutions of the test compound in DMSO (up to 2.5%). The reaction is allowed to proceed for 2 to 4 hours before being stopped with an excess of ortho-phosphoric acid (5 μl at 2%).
(§2) γ^33P-ATP which remains unincorporated into the histone H1 is separated from phosphorylated histone H1 on a Millipore MAPH filter plate. The wells of the MAPH plate are wetted with 0.5% orthophosphoric acid, and then the results of the reaction are filtered with a Millipore vacuum filtration unit through the wells. Following filtration, the residue is washed twice with 200 μl of 0.5% orthophosphoric acid. Once the filters have dried, 20 μl of Microscint 20 scintillant is added, and then counted on a Packard Topcount for 30 seconds.
(§3) The % inhibition of the CDK2 activity is calculated and plotted in order to determine the concentration of test compound required to inhibit 50% of the CDK2 activity (IC50).

[2] = biological target: T1, CDK1/CyclinB (Homo sapiens, UniProt P06493); assay: Activated CDK1/CyclinB kinase inhibitory activity assay; assay type: biochemical; details: histone H1 substrate, γ33P-ATP filter assay; read-out: IC50 against CDK1 activity
T1 construct: purchased Upstate Discovery
Description: as §1, §2, §3
CDK1/CyclinB assay is identical to the CDK2/CyclinA above except that CDK1/CyclinB (Upstate Discovery) is used and the enzyme is diluted to 6.25 nM.

T1 sequence (P06493 whole entry): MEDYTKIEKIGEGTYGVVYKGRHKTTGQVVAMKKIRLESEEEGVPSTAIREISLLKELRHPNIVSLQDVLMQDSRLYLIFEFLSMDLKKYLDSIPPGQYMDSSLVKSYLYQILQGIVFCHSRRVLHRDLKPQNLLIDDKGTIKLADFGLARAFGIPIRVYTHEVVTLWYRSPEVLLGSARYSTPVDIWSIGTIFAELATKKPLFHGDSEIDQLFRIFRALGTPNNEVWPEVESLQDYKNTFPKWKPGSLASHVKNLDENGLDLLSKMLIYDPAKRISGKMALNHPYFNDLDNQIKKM
T1 sequence (P14635 whole entry partner): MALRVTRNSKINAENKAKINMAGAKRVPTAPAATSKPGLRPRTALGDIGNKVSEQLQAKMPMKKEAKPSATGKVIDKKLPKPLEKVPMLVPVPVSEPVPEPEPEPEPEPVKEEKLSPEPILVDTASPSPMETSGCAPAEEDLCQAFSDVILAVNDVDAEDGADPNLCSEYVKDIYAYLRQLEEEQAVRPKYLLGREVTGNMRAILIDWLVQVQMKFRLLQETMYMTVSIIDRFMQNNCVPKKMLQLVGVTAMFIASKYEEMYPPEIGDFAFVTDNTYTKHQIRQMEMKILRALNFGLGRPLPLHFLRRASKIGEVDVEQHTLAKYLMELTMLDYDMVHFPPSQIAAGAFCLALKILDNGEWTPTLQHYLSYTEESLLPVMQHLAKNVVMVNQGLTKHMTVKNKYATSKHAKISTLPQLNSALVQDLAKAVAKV

Question: What does the source list for O=C(Nc1c[nH]nc1-c1nc2c([nH]1)CCN(CCF)C2)c1c(F)cccc1F [Example 7, 2,6-difluoro-N-{3-[5-(2-fluoro-ethyl)-4,5,6,7-tetrahydro-1H-imidazol[4,5-c]pyridine-2-yl]-1H-pyrazol-4-yl}-benzamide]?
Answer: IC50 [1]: < 1000 nM; IC50 [2]: < 1000 nM

Question: CCN1CCc2[nH]c(-c3n[nH]cc3NC(=O)c3c(F)cccc3F)nc2C1 [Example 6, N-[3-(5-ethyl-4,5,6,7-tetrahydro-1H-imidazo[4,5-c]pyridine-2-yl)-1H-pyrazol-4-yl]-2,6-difluoro-benzamide] was tested. Which IC50 [1] did it give?
Answer: < 1000 nM

Question: What about the IC50 [2] of the same compound?
Answer: < 1000 nM

Question: With O=C(Nc1c[nH]nc1-c1nc2c([nH]1)CCNC2)c1c(F)cccc1F [Example 4, 2,6-difluoro-N-[3-(4,5,6,7-tetrahydro-1H-imidazol[4,5-c]pyridin-2-yl)-1H-pyrazol-4-yl]-benzamide] as the compound, how does the IC50 [1] read?
Answer: < 1000 nM

Question: And the IC50 [2]?
Answer: < 1000 nM

Question: For O=C(Nc1c[nH]nc1-c1nc2cc[nH]c(=O)c2[nH]1)c1c(F)cccc1F [Example 1, 2,6-difluoro-N-[3-(4-oxo-4,5-dihydro-3H-imidazo[4,5-c]pyridin-2-yl)-1H-pyrazol-4-yl]-benzamide], which IC50 [1] is on record?
Answer: < 1000 nM

Question: What about the IC50 [2] of the same compound?
Answer: < 1000 nM
